Laboratory results reported in publication PMC5441580, “GPR40 partial agonist MK-2305 lower fasting glucose in the Goto Kakizaki rat via suppression of endogenous glucose production” (PLoS ONE, 2017).
Values joined by “and” are separate entries in the source; they are usually repeats but may differ in a detail not shown here. Identical values can stand only once.

Tests used:
human GPR41 (FFAR3) = molecular target: T1, human GPR41 (FFAR3) (Homo sapiens, UniProt O14843); assay: cAMP (LANCE) functional assay, CHO cells expressing human GPR41; assay type: cell-based
T1 construct: expressed in transfected cells
T1 sequence (O14843 1-346): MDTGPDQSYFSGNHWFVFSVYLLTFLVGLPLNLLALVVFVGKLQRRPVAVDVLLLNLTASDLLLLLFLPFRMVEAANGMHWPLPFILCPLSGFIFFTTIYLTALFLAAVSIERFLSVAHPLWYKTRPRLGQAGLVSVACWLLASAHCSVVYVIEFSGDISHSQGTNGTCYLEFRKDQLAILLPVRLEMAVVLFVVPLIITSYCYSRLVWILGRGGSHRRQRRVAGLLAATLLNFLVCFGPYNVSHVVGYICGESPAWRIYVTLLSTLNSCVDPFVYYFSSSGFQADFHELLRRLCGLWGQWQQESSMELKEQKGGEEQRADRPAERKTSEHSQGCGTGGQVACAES
Experimental: CHO cells stably expressing human GPR41 or human GPR43 were harvested with non-enzymatic cell dissociation buffer and re-suspended in LANCE stimulation buffer (prepared as described by PE) at 0.25 million cells per ml (3.3 million cells per ml for GPR43) and 6 μl was then plated into each well of a 384-well Culturplate. Compounds were serially diluted in DMSO and then diluted further into stimulation buffer containing 2 μM forskolin (Sigma) at 2-times final concentration in the assay. 6 μl of the diluted compounds were then added to the assay plate and the plate incubated for 60 mins at room temperature. After the incubation, 12 μl of detection reagent (prepared as described by PE) was added to each well and the plates incubated one additional hour at room temperature. After the final incubation, the plates were read in a Perkin Elmer Envision reader with a method designed for Time-resolved fluorescence (TRF) assays (340 nm excitation, dual emission 615 and 655 nm). For each assay, a cAMP standard curve plate was also included. All fluorescent readings (using the 655/615 nm ratio) were converted to cAMP concentration using the cAMP standard curve and the percent activity at each concentration of test compound was determined using 0% activation (basal activity) determined in those wells containing DMSO alone, while 100% activity was determined in wells containing a concentration of agonist know to maximally activate the receptor.

rat GPR40 (FFAR1) = molecular target: T2, rat GPR40 (FFAR1) (Rattus norvegicus, UniProt Q8K3T4); assay: IP1 functional assay, CHO cells stably expressing rat GPR40; assay type: cell-based; details: for Receptor Activation (%): representative curve Fig 1B
T2 construct: expressed in transfected cells
Experimental: CHO Jump-IN cells stably expressing rat GPR40 or HEK293 Jump-IN cells stably expressing rat GPR120 were cultured in DMEM media supplemented with 10% dialyzed FBS, non-essential amino acids, penicillin/streptomycin, 10 μg/ml Blasticidin S HCL and 200 or 100 μg/ml Hygromycin B, respectively (Life Technologies). Cell stocks were maintained and grown in a sub-confluent state using standard cell culture procedures. The day before the experiment, the cells were harvested with non-enzymatic cell dissociation buffer and re-suspended in DMEM supplemented as described above at 0.15 million cells per ml. […] The seeded plates were incubated overnight at 37°C in a humidified environment.
On the day of the experiment, the growth media was removed from the assay plate by centrifugation using a BlueCatBio BlueWasher, protocol #21 “Light Dry” and 10 μl of IP1 stimulation buffer (prepared according to the Cisbio IP-one Tb HTRF kit) is added to each well. Test compounds were dissolved and serially diluted in DMSO as 200X the final assay concentration and 50 nl of the compound dilution was acoustically added to each well of the assay plates. The plates were then incubated for 60 minutes at room temperature and 10 μl of detection buffer (prepared according to the IP-one Tb HTRF kit) is added to each well of the assay plate. The plates were then incubated for one additional hour at room temperature. […] For each assay, a standard curve plate in which IP1 is titrated is also included. […] The % activation is then plotted versus the concentration of test compound and the dose response curve fitted to a standard 4-paramater non-linear regression model using a custom in-house developed software package. Maximal % activation and EC50 are then determined for each test compound.

[1] = test system: pancreatic islets of Langerhans from wild-type mice; assay: glucose stimulated insulin secretion (GSIS), isolated wild-type islets; assay type: cell-based, mouse; details: WT islets; for secreted insulin per islet: 10 uM compound, 60 min, individual wells
Experimental: Pancreatic islets of Langerhans were isolated from wild-type and GPR40−/− mice (littermates) by collagenase digestion and discontinuous Ficoll gradient separation. […] Insulin secretion was determined by a 1 hr static incubation in Krebs-Ringer bicarbonate (KRB) buffer in a 96-well format as previously described. Briefly, islets were first preincubated in KRB medium with 2 mmol/l glucose for 30 min and were then transferred to a 96-well plate (three islets/well) and incubated with 200 μl of the KRB medium with 2 or 15 mmol/l glucose in the presence or absence of testing compounds for 60 min. The buffer was removed from the wells at the end of the incubation and assayed for insulin levels using the Ultrasensitive Rat Insulin ELISA kit (ALPCO, Salem, NH). All insulin secretion data were normalized by total islet numbers (ex: three islets/well), so the unit is secreted insulin (ng/ml) per islet.

Rat PPARγ = molecular target: T3, Rat PPARγ (Rattus norvegicus, UniProt O88275); assay: cell-based nuclear receptor profiling (Indigo Biosciences), PPARγ
T3 sequence (O88275 238-505 limits assumed): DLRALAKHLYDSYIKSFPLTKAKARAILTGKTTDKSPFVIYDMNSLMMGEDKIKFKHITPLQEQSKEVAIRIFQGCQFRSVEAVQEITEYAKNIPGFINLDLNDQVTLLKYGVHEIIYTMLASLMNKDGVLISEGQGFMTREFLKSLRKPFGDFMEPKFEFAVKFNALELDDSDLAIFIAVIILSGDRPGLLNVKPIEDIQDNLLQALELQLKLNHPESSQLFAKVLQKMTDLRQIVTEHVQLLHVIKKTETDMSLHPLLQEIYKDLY
Experimental: Rat PPARα, PPARδ, and PPARγ activities were determined by Indigo Biosciences (State College, PA) cell-based nuclear receptor profiling service.

T2 sequence (Q8K3T4 whole entry): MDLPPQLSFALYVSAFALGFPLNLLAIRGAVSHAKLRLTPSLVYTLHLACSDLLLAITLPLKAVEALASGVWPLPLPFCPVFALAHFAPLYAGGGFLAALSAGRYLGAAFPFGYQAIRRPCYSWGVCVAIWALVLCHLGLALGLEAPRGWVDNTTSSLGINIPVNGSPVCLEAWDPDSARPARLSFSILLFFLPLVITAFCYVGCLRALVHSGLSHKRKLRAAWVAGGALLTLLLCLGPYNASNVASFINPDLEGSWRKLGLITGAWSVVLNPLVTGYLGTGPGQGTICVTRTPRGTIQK

- % Activation (human GPR41 (FFAR3); @ 25 μM): 85 @ 25 μM % and 85%
- % Effect (human GPR41 (FFAR3); Dose 1.267 nM): -32%
- % Effect (human GPR41 (FFAR3); Dose 3.801 nM): 0.634%
- % Effect (human GPR41 (FFAR3); Dose 34.208 nM): -2.75%
- % Effect (human GPR41 (FFAR3); Dose 102.624 nM): -4.7%
- % Effect (human GPR41 (FFAR3); Dose 307.872 nM): -36%
- % Effect (human GPR41 (FFAR3); Dose 923.617 nM): -18%
- % Effect (human GPR41 (FFAR3); Dose 2770.85 nM): -0.143%
- % Effect (human GPR41 (FFAR3); Dose 8312.55 nM): 50%
- % Effect (human GPR41 (FFAR3); Dose 24938 nM): 85%
- EC50 (human GPR41 (FFAR3); cAMP, CHO cells expressing human GPR41): 12.7 µM
- selectivity for activation of rat GPR40 vs. GPR120, GPR41, GPR43, PPARα, PPARδ, PPARγ (rat GPR40 (FFAR1)): highly selective
- Receptor Activation (%) (rat GPR40 (FFAR1); Concentration 2.00E-06 M): 154%
- Receptor Activation (%) (rat GPR40 (FFAR1); Concentration 2.00E-07 M): 169%
- Receptor Activation (%) (rat GPR40 (FFAR1); Concentration 2.00E-08 M): 136%
- Receptor Activation (%) (rat GPR40 (FFAR1); Concentration 2.00E-09 M): 35%
- Receptor Activation (%) (rat GPR40 (FFAR1); Concentration 2.00E-10 M): 5.69%
- Receptor Activation (%) (rat GPR40 (FFAR1); Concentration 6.00E-07 M): 163%
- Receptor Activation (%) (rat GPR40 (FFAR1); Concentration 6.00E-08 M): 133%
- Receptor Activation (%) (rat GPR40 (FFAR1); Concentration 6.00E-09 M): 74%
- Receptor Activation (%) (rat GPR40 (FFAR1); Concentration 6.00E-10 M): 16%
- Receptor Activation (%) (rat GPR40 (FFAR1); Concentration 6.00E-11 M): -6%
- EC50 (rat GPR40 (FFAR1); IP1 accumulation, CHO cells expressing rat GPR40, mean ± SD, N = 29): 0.006 ± 0.0029 µM
- % Activation (rat GPR40 (FFAR1); maximal activation, percentage of the control response of an in-house partial agonist, mean ± SD): 166% and 166 ± 31^1%
- EC50 (Rat PPARγ): > 10 µM
- % Activation (Rat PPARγ; @ 10 μM): 3.1 @ 10 μM % and 3.1%
- % Effect (Rat PPARγ; Dose 0.309 nM): -0.11%
- % Effect (Rat PPARγ; Dose 0.981 nM): -0.11%
- % Effect (Rat PPARγ; Dose 3.11 nM): -0.19%
- % Effect (Rat PPARγ; Dose 9.85 nM): -0.3%
- % Effect (Rat PPARγ; Dose 31.2 nM): -0.25%
- % Effect (Rat PPARγ; Dose 99 nM): -0.14%
- % Effect (Rat PPARγ; Dose 314 nM): -0.37%
- % Effect (Rat PPARγ; Dose 995 nM): -0.13%
- % Effect (Rat PPARγ; Dose 3155 nM): 0.6%
- % Effect (Rat PPARγ; Dose 10000 nM): 3.1%
Compound: O=C1NC(=O)C(C2CCOc3cc(Oc4ccc(C(F)(F)F)cc4Cl)ccc32)S1 (stereo not shown) [MK-2305]
- % Activation (rat GPR40 (FFAR1); individual experiments (raw data of Table 1)): 118% and 159% and 181% and 151% and 130% and 184% and 179% and 195% and 135% and 146% and 161% and 144% and 191% and 182% and 204% and 258% and 168% and 171% and 187% and 162% and 170% and 165% and 199% and 155% and 137% and 160% and 91%
- secreted insulin per islet ([1]; 2mM glucose): 0.6472 ng/ml per islet and 0.4249 ng/ml per islet and 0.7026 ng/ml per islet and 0.678 ng/ml per islet and 0.4061 ng/ml per islet and 0.594 ng/ml per islet and 0.652 ng/ml per islet and 0.541 ng/ml per islet
- secreted insulin per islet ([1]; 15 mM Glucose): 5.982 ng/ml per islet and 3.69 ng/ml per islet and 4.728 ng/ml per islet and 4.578 ng/ml per islet and 5.448 ng/ml per islet and 3.948 ng/ml per islet and 4.236 ng/ml per islet and 5.162 ng/ml per islet
- effect on GSIS ([1]; high (15 mM) but not basal (2 mM) glucose): acutely stimulate GSIS
